{"source": "patent US7101854B2", "about": "“Tetrapeptide stimulating the functional activity of hepatocytes, pharmacological substance on its basis and the method of its application” (Sankt-Peterburgskaya Obschestvennaya Organizatsiya …, priority 2000, dated 2006)", "key": {"[1]": {"test_system": "hepatoma-27", "assay": "Growth of transplanted hepatoma-27 in rats", "assay_type": "in vivo", "conditions": "for Mean life span (days after the tumour transplantation): rats with hepatoma-27; for Tumour growth: tetrapeptide 1 μg/kg s.c. 10 days, stabilised since 30th day, cyclophosphamide 100 μg/kg i.p. once, from 16th day; for Animals with complete tumour resolution: tetrapeptide: days 16, 25, 43, cyclophosphamide: days 28, 32, 41 after transplantation", "protocol": "The study was performed on 37 female rats weighing 150-200 g with hepatoma-27 subcutaneously transplanted to the right femur region. […] Cyclophosphamide administered once intraperitoneally in the dose of 100 μg/kg was employed as a positive control. The tumour dynamics and animals' survival rate were assessed in experiments."}, "[2]": {"test_system": "white mongrel male mice", "assay": "Acute toxicity according to Kerber, single intramuscular administration", "assay_type": "in vivo", "source_text": "This study was designed to define the tolerable toxic doses of the preparation, assess the degree and character of pathologic alterations in various organs and systems of the organism and reveal the dependence of toxic effects on the dosage and duration of the preparation intake.\nExamined were 72 white mongrel male mice weighing 20–22 g. The mice were kept in vivarium under standard regimen and fed upon standard rations. They were randomised to six equal groups, 12 mice in each. The animals were once intramuscularly administered with 0.25 ml of the preparation in the doses of 1 mg/kg, 2 mg/kg, 3 mg/kg, 4 mg/kg and 5 mg/kg (several thousand times exceeding the therapeutic dose recommended for clinical trials). The control animals received the same amount of natural saline solution.\nNo alterations in their general state, behaviour, motor activity, hair and skin integument, physiological discharge were registered."}, "[3]": {"test_system": "liver fragments of 10–11-days old chicken embryos", "assay": "Development of liver explants (square index)", "assay_type": "cell-based", "conditions": "20 ng/ml, third day of cultivation", "protocol": "The experiments were carried out in 53 liver fragments of 10–11-days old chicken embryos. Nutrient medium for the explant cultivation consisted of 35% of Eagle's solution, 25% of foetal calf serum, 35% of Hank's solution and 5% of chicken embryonic extract. The mixture is added glucose (0.6%), insulin (0.5 unit/ml), penicillin (100 unit/ml) and glutamine (2 mM). The liver fragments were placed in this medium and cultivated in Petri's dishes in a thermostat at 36.7° C. during 48 hours. […] Square index (SI) was taken for a biological activity criterion and calculated as a correlation of the total explant square including the growth zone to the initial square of a liver fragment. The SI values were expressed per cent, the control SI value taken for 100%."}, "[4]": {"test_system": "rats with acute toxic hepatitis", "assay": "Acute toxic hepatitis induced by CCl4 in rats", "procedure": "Freshly made solution heated to 30–35° C. was introduced into the femoral region at the ratio of 0.5 ml per 100 g of the animal's body weight, daily for 5 days.\nIn 5 days after the tetrapeptide administration completion, the rats were euthanaised and the investigation results were assessed.\nIn 20 days after the experiment onset, the rats were euthanaised.\nThe control animals received natural saline injections according to the same plans.\nThe state of the animals' liver was assessed by the data of biochemical analysis defining the concentration of protein, bilirubin, cholesterol, alanine aminotransferase (ALT) and aspartate aminotransferase (AST).\nTissue bits were fixed in 10% formalin solution in a 0.1M sodium phosphate buffer (pH 7.4). The histological preparations were stained with haematoxylin-eosin, staining for fat was performed with Sudan-3 and for glycogen—according to McManus."}, "[5]": {"test_system": "rats", "assay": "Chronic toxicity, daily intramuscular injection for 6 months", "assay_type": "in vivo", "conditions": "i.m. 1 μg/kg, 0.1 mg/kg, 1 mg/kg daily for 6 months", "protocol": "The animals were intramuscularly injected with the preparation in the doses of 1 μg/kg, 0.1 mg/kg, 1 mg/kg in 0.5 ml of natural saline solution, daily for 6 months. Their behaviour, food and water consumption, state of hair integument and mucous membranes were noted. The rats were weighed daily during the first three months of the experiment and then once a month. In three months after the administration onset and at the experiment completion, haematological and biochemical investigations were conducted. The functions of the cardiovascular system, liver, pancreas, kidneys and adrenal glands were assessed. At the end of the tetrapeptide administration, part of the animals were subjected to a post mortem examination to assess the state of various segments of their brain and spinal marrow, heart, aorta, lungs, liver, kidneys, endocrine and immune organs."}, "[6]": {"test_system": "hepatocyte monolayer culture of rats of various ages", "assay": "Intensity of protein synthesis ([3H]-leucin inclusion) in monolayer hepatocyte culture", "assay_type": "cell-based", "conditions": "0.005 μg/ml, 4 hours", "protocol": "The intensity of protein synthesis was investigated in a hepatocyte culture of rats aged 4, 8 and 18 months.\nTo isolate hepatocytes, rat liver was perfused with calcium-free Hanks' solution added 0.5 mM of EDTA and then 0.05% collagenase solution in Medium 199. The cellular suspension was filtered out and centrifuged. The hepatocyte suspension in the concentration of 5×10^5 was introduced into Petri's dishes, their bottoms surfaced with collagen-covered glass. Applied Medium 199 contained no bovine serum but was added 0.2 mg/ml of albumen and 5 μg/ml of insulin. The dishes with glass-covered bottoms were placed in a thermostat at 37° C., aerated and added CO2. […]\nProtein synthesis was assessed by [^3H]-leucin inclusion regarding the standard errors for a free marked leucin pull in the same culture. […] Radioactivity of the pull of free intracellular leucin and cellular proteins (in hyamine fraction) after adding the corresponding scintillators was measured on a radioactivity counter SL-30.\nThe intensity of protein synthesis was calculated by the formula: Icorr=Ii×Pav/Pi(cpm), where\nIcorr—inclusion of leucin regarding the standard errors of free leucin pull, Ii—measured radioactivity of the proteins for i-culture, Pav—mean radioactivity of proteins and pull for the cultures studied in this experiment, Pi—total radioactivity of proteins and pull of the same culture."}, "[7]": {"test_system": "patients with chronic persistent hepatitis", "assay": "Clinical application in patients with chronic persistent hepatitis", "assay_type": "in vivo, human", "protocol": "The trial was carried out on 23 patients aged 32–53 years. The disease duration constituted 10–20 years. 79% of the patients had virus hepatitis A in the case history and 11%—virus hepatitis B. The majority of the patients complained of pains in the right hypochondrium, general weakness and quick fatigability. 45% of the patients noted dyspeptic disorders. All the patients had previously received periodic conventional medications.\nThe control group included 12 analogous patients treated by conventional methods.\nThe patients' complaints were assessed in dynamics. Performed were total blood and urine counts, biochemical blood investigation (“REFLOTRON”, Boehringer Mannheim, Germany) and immune assay of the peripheral blood (definition of Ig according to Mancini). Ultrasound investigation of-the liver was carried out on an ultrasound apparatus (ALOKA, Japan). Against the background of the applied treatment 93% of the patients noted weakness elimination, improved appetite and increased workability. […] The biochemical test results were in the focus of attention during the patients' examination. They reflected aminotransferase activity, pigment- and protein-forming functions of the liver. 72% of the patients registered hyperbilirubinemia, increased level of alanine aminotransferase (ALT) and slight rise in γ-globulin fraction of the blood proteins, chiefly, due to IgM, which evidenced a certain activity of the chronic inflammatory process."}, "[8]": {"test_system": "white mongrel rats", "assay": "Subacute toxicity, daily intramuscular injection for 90 days", "assay_type": "in vivo", "conditions": "i.m. 1 μg/kg, 0.3 mg/kg, 3 mg/kg daily for 90 days", "protocol": "The animals were intramuscularly injected with the preparation once a day in the doses of 1 μg/kg, 0.3 mg/kg, 3 mg/kg in 0.5 ml of natural saline solution, daily for 90 days. The control animals were administered with natural saline solution in the same amount.\nThe animals were under daily observation during the whole course of investigation. Their behaviour, food and water consumption, state of hair integument and mucous membranes were noted. The rats were weighed weekly. Before the preparation administration and on the 30th, 60th and 90th days thereof the morphological composition and properties of their peripheral blood were examined. Biochemical and coagulological properties of the blood were studied at the experiment completion."}, "[9]": {"conditions": "Day 5, 1 μg i.m. for 5 days accompanying CCl4 impact"}, "[10]": {"conditions": "Day 20, 1 μg i.m. daily for 15 days after CCl4 impact"}, "[11]": {"conditions": "Day 20, tetrapeptide after CCl4 impact"}, "[12]": {"conditions": "after treatment, i.m. once a day 0.01–100 μg/kg, 10–40 days"}, "[13]": {"conditions": "against the background of the applied treatment"}}, "note": "Residues, ends and D or L forms follow the SMILES beside them."}
{"compound": "O=P1(N(CCCl)CCCl)NCCCO1", "note": "(centres unmarked) [Cyclophosphamide, reference compound]", "values": [{"measurement": "Mean life span (days after the tumour transplantation)", "setting": "[1]", "value": "61.50 ± 4.58", "unit": "days"}, {"measurement": "Tumour growth", "setting": "[1]", "value": "stable decrease in the tumour growth rate"}, {"measurement": "Animals with complete tumour resolution", "setting": "[1]", "value": "three"}]}
{"compound": "C[C@H](NC(=O)[C@H](CC(=O)O)NC(=O)[C@H](CCC(=O)O)NC(=O)[C@@H](N)CCCCN)C(=O)O", "note": "[Lys-Glu-Asp-Ala tetrapeptide, lysyl-glutamyl-aspartyl-alanine] (H-KEDA-OH)", "values": [{"measurement": "Acute toxic reactions", "setting": "[2]; doses several thousand times exceeding the therapeutic one", "value": "does not entail any acute toxic reactions"}, {"measurement": "Death of animals", "setting": "[2]; single intramuscular 1, 2, 3, 4, 5 mg/kg, 72 hours and 14 days", "value": "none of the animals died"}, {"measurement": "Increase in the explant square index (SI) compared to control", "setting": "[3]", "value": 24, "unit": "%"}, {"measurement": "ALT", "setting": "[4]; [9]", "value": "35.3 ± 3.8 international units per ml"}, {"measurement": "AST", "setting": "[4]; [9]", "value": "35.6 ± 4.3", "unit": "international unit per ml"}, {"measurement": "Cholesterol", "setting": "[4]; [9]", "value": "4.1 ± 0.25", "unit": "mm/l"}, {"measurement": "Protein (blood)", "setting": "[4]; [9]", "value": "77.8 ± 3.7", "unit": "g/L"}, {"measurement": "Total bilirubin", "setting": "[4]; [9]", "value": "12.5 ± 2.1", "unit": "µmol/L"}, {"measurement": "Hepatocytes with fat inclusions", "setting": "[4]; Day 5, tetrapeptide accompanying CCl4 impact", "value": "49.8 ± 6.3", "unit": "%"}, {"measurement": "ALT", "setting": "[4]; [10]", "value": "5.3 ± 0.98 international units per ml"}, {"measurement": "AST", "setting": "[4]; [10]", "value": "11.3 ± 1.9", "unit": "international unit per ml"}, {"measurement": "Cholesterol", "setting": "[4]; [10]", "value": "4.2 ± 0.35", "unit": "mm/l"}, {"measurement": "Protein (blood)", "setting": "[4]; [10]", "value": "83.4 ± 3.4", "unit": "g/L"}, {"measurement": "Total bilirubin", "setting": "[4]; [10]", "value": "14.8 ± 3.2", "unit": "µmol/L"}, {"measurement": "Hepatocytes with fat inclusions", "setting": "[4]; [11]", "value": "10.0 ± 2.1", "unit": "%"}, {"measurement": "Hepatocytes with glycogen synthesis", "setting": "[4]; [11]", "value": "90.0 ± 8.1", "unit": "%"}, {"measurement": "Hepatocytes with negative staining for fat", "setting": "[4]; Day 20, tetrapeptide for 15 days after CCl4 impact", "value": 90, "unit": "%"}, {"measurement": "Concentration of protein, bilirubin, cholesterol and aminotransferases in the blood", "setting": "[4]; tetrapeptide during 15 days after the end of CCl4 impact", "value": "restored to the normal values"}, {"measurement": "Pathologic alterations (general state, blood indices, organs, liver and kidney functions), chronic toxicity", "setting": "[5]", "value": "no pathologic alterations"}, {"measurement": "Protein synthesis oscillation amplitude", "setting": "[6]; hepatocytes of older rats", "value": "increased significantly"}, {"measurement": "Level of protein synthesis in hepatocytes", "setting": "[6]; rats aged 4, 8 and 18 months, strongest effect in cells of older animals", "value": "raised the level of protein synthesis"}, {"measurement": "Tumour size relative to controls (times less)", "setting": "[1]; 30th day, 1 μg/kg s.c. daily for 10 days", "value": 2.5, "unit": "times"}, {"measurement": "Mean life span (days after the tumour transplantation)", "setting": "[1]", "value": "68.00 ± 1.23", "unit": "days"}, {"measurement": "Tumour growth", "setting": "[1]", "value": "stable inhibition of the tumour growth"}, {"measurement": "Proportion of ulcer-bearing animals", "setting": "[1]; tetrapeptide from the 39th day after transplantation, cyclophosphamide only on the 43rd day", "value": "significant decrease in the proportion of ulcer-bearing animals"}, {"measurement": "Animals with complete tumour resolution", "setting": "[1]", "value": "Three"}, {"measurement": "IgA", "setting": "[7]; after treatment", "value": "2.30 ± 0.07", "unit": "g/L"}, {"measurement": "IgG", "setting": "[7]; after treatment", "value": "13.9 ± 0.9", "unit": "g/L"}, {"measurement": "IgM", "setting": "[7]; after treatment", "value": "1.50 ± 0.03", "unit": "g/L"}, {"measurement": "ALT (peripheral blood)", "setting": "[7]; [12]", "value": "40.8 ± 3.1", "unit": "mmol/L"}, {"measurement": "AST (peripheral blood)", "setting": "[7]; [12]", "value": "38.5 ± 2.4", "unit": "mmol/L"}, {"measurement": "Bilirubin (peripheral blood)", "setting": "[7]; [12]", "value": 21.7, "unit": "µM"}, {"measurement": "Cholesterol (peripheral blood)", "setting": "[7]; [12]", "value": "5.1 ± 0.3", "unit": "mmol/L"}, {"measurement": "GGT (peripheral blood)", "setting": "[7]; [12]", "value": "41.6 ± 4.5", "unit": "mmol/L"}, {"measurement": "Triglycerides (peripheral blood)", "setting": "[7]; [12]", "value": "2.2 ± 0.2", "unit": "mmol/L"}, {"measurement": "Patients noting weakness elimination, improved appetite and increased workability", "setting": "[7]; [13]", "value": 93, "unit": "%"}, {"measurement": "Patients with significantly lower intensity of the pain syndrome", "setting": "[7]; [13]", "value": 51, "unit": "%"}, {"measurement": "Pathologic alterations (general state, blood indices, organs, liver and kidney functions), subacute toxicity", "setting": "[8]", "value": "no pathologic alterations"}]}
